The values that follow come from ChEMBL document CHEMBL5096153, “Spirocyclic Scaffolds in Medicinal Chemistry” (J Med Chem, 2021).

As a reminder, the IC50 is the concentration at which inhibition is half-maximal.

The experiment deals with Influenza A virus. Kind of experiment: Antiviral activity against drug-resistant Influenza A virus A/M2-V27A mutant assessed as viral growth inhibition. The experiment is classed as functional, organism-based.

As for `NC1CC[Si]2(CCCC2)CC1`, the IC50 turned out to be 96.3 µM.
Regarding `NC1CCC2(CCCC2)CC1`, the IC50 turned out to be 319 µM.
